Marks after values point to notes of the source that are not given here. Values belong to the molecule of their own block, whether it stands above or below them.
Experiments:
[1] = test system: TNFα secretion in LPS-stimulated human monocyte cell lines (THP-1); assay: Suppression of TNFα secretion in LPS-stimulated THP-1 (ELISA); assay type: cell-based
Experimental: To identify the efficacy of the inventive compounds on suppressing a TNFα secretion in immune responses, suppression of TNFα production, which was achieved by a treatment with compounds 374, 461, 500, 530 and 532 according to the present invention in LPS-stimulated human monocyte cell lines (THP-1), was quantified by means of an enzyme immuno-assay (ELISA).
Specifically, the THP-1 cell lines (ATCC) were cultured in an RPMI-1640 medium comprising 10% FBS. The cell lines were divided into a 24 well plate at a ratio of 1×10^5 cells per well, then treated with 100 ng/mL PMA (phorbol 12-myristate 13-acetate) for 24 hours, and then differentiated into macrophage. Then, the culture medium was replaced with a new one, then treated with a test drug for 24 hours, and then treated again with 10 ng/mL LPS (E. Coli, O55:B5) for four hours for stimulation. After that, supernatant was taken and used to measure the amount of TNFα secreted from the cells by means of a Human TNFα Instant ELISA kit (eBioscience, BMS223INST) according to a protocol provided by a manufacturer.

NZB/W F1 female mice [2] = assay: Proteinuria and UP/C in SLE model mouse; assay type: in vivo; settings: positive control 5 mg/kg/day; 42 weeks old
Experimental: (§1) 80 NZB/W F1 female mice (four weeks old) were purchased from Jackson Laboratory and maintained in an SPF breeding room with five mice per cage. Their weight and urine protein were measured at 24 weeks after birth (right before administration), and then all the animals except those having too much urine protein were divided into groups as shown in a table 2 below such that the urine protein and weight might be evenly distributed among the groups.
(§2) Then, the mice were administered as described in the table 2 once a day for about 19 weeks from 24 weeks after birth to 42 weeks after birth.
(§3) The fresh urine of mice was collected before and after administration every two weeks, while blood collection was performed before and after administration every four weeks. The serum was prepared by centrifugation of the collected blood and then kept at −70° C.
A urine creatinine concentration was obtained by diluting the urine 100-fold, then measuring the concentration thereof by means of a serum chemistry analyzer (Dri-CHEM 3000 colorimetric analyzer, Fujifilm), and then calibrating the measured value using a dilution factor.

NZB/W F1 female mice [3] = assay: Serum cytokine level (Milliplex MAP kit) in SLE disease mouse; assay type: in vivo; settings: group P, 5 mg/kg/day i.p., n = 13
Experimental: as §1, §2, §3
To analyze an effect of the inventive pharmaceutical composition on a change in a serum cytokine level in the SLE disease mouse, a level of GM-CSF, IFN-γ, IL-1α, IL-1β, IL-10, IL-12(p70), IL-15, IL-17a, IL-2, IL-4, IL-6, TNF-α, […], IL-22 and IL-23 in serum was measured by means of a Mouse cytokine Milliplex MAP kit (Merck Millipore), wherein the results thereof were shown in a table 3.
Data obtained from groups were compared using a Kruskal-Wallis (†p<0.05) *p<0.05 versus C group (Mann-Whitney U-test)

NZB/W F1 female mice [4] = assay: Serum chemistry after long-term administration; assay type: in vivo, mouse; settings: group P, 5 mg/kg/day i.p.; serum at autopsy
Experimental: as §1, §2
Data obtained from groups were compared using a Kruskal-Wallis (†p<0.05), *p<0.05 versus C group (Mann-Whitney U-test), ALT: alanine aminotransferase, AST: aspartate aminotransferase, ALP: alkaline phosphatase, TBIL: total bilirubin, TCHOL: total cholesterol, TG: triglyceride, TP: total protein, CPK: creatine phosphokinase)

NZB/W F1 female mice [5] = assay: T cell populations in spleen (FACS) in SLE disease mouse; assay type: in vivo; settings: positive control 5 mg/kg/day; vs negative control
[6] = test system: CTLA4 (cytotoxic T-lymphocyte-associated protein 4) in the regulatory T cells; assay: CTLA4 expression in regulatory T cells (flow cytometry); assay type: cell-based, mouse; settings: 1000 nM
Experimental: To identify if the compounds according to the present invention regulate a function of regulatory T cells in immune responses, compounds 255, 280, 374, 416 and 476 were treated, and then an expression level of an immune checkpoint receptor CTLA4 (cytotoxic T-lymphocyte-associated protein 4) in the regulatory T cells was measured by means of flow cytometry.
Specifically, a six-week old C57BL6 male mice were supplied from Central Lab Animal Inc., then acclimated for one week, and then used in an experiment. A spleen was isolated from the mouse, and then treated with collagenase D (Roche, 11088866001), such that splenocytes were isolated therefrom. CD4+CD25− T cells were isolated by means of a CD4+CD25+ regulatory T cell isolation kit (Miltenyi Biotec, 130-091-041), and then CD4+CD25− T cells (at a ratio of 5×10^5 cells/well) were treated with an anti-CD3c/anti-CD28 mAb bead (T cell activation/expansion kit, Miltenyi Biotec, 130-093627) and a mouse recombinant TGF-β2 for six days, such that they were differentiated into iTreg. A test drug was simultaneously treated for six days, during which the cells were differentiated into iTreg. After that, the cells were incubated by means of anti-CD^4/anti-CD25 mAb (eBioscience, 25-0042-82, 17-0251-82) at 4° C. for 20 minutes, and then labeling was performed. […]

[7] = on increasing concentration from 100 nM to 300 nM

SMILES: CCN1CCN(C(=O)N(Cc2ccc(C(=O)NO)cc2)c2cccc(C(F)(F)F)c2)CC1 [Compound 461, 4-ethyl-N-(4-(hydroxycarbamoyl)benzyl)-N-(3-(trifluoromethyl)phenyl)piperazine-1-carboxamide]
level of TNFα secretion ([1]; at both 100 nM and 300 nM): remarkably decreased

SMILES: O=C(NO)c1ccc(CN(C(=O)N2CCOCC2)c2cccc(C(F)(F)F)c2)c(F)c1 [Compound 532, N-(2-fluoro-4-(hydroxycarbamoyl)benzyl)-N-(3-(trifluoromethyl)phenyl)morpholine-4-carboxamide]
level of TNFα secretion [1, 7]: drastically decreased

ALP (NZB/W F1 female mice [4]): 207.45 ± 7.21 U/I
Albumin (NZB/W F1 female mice [4]): 2.52 ± 0.07* g/dl
Ca (NZB/W F1 female mice [4]): 9.35 ± 0.16 mg/dL
Glucose (NZB/W F1 female mice [4]): 189.27 ± 12.23 mg/dL
TBIL (NZB/W F1 female mice [4]): 0.41 ± 0.09 mg/dL
TCHOL (NZB/W F1 female mice [4]): 162.09 ± 8.97 mg/dL
TG (NZB/W F1 female mice [4]): 251.82 ± 29.19 mg/dL
TP (NZB/W F1 female mice [4]): 5.42 ± 0.11* g/dl
SMILES: C[C@H]1C[C@@H]2[C@H]([C@@H](O)C[C@@]3(C)[C@H]2CC[C@]3(O)C(=O)CO)[C@@]2(C)C=CC(=O)C=C12 [Methylprednisolone, reference compound]
incidence rate of severe proteinuria of 300 mg/dl or more (NZB/W F1 female mice [2]): 20%
IFN-γ in serum (NZB/W F1 female mice [3]): 0.07 ± 0.07 pg/mL
IL22 in serum (NZB/W F1 female mice [3]): 17.68 ± 4.49 pg/mL
IL-1α in serum (NZB/W F1 female mice [3]): 666.21 ± 146.22 pg/mL
IL-1β in serum (NZB/W F1 female mice [3]): 0.65 ± 0.65 pg/mL
IL-2 in serum (NZB/W F1 female mice [3]): 0.09 ± 0.09 pg/mL
IL-4 in serum (NZB/W F1 female mice [3]): 1.49 ± 0.06 pg/mL
IL-6 in serum (NZB/W F1 female mice [3]): 3.36 ± 0.92 pg/mL
IL-23 in serum (NZB/W F1 female mice [3]): 22.31 ± 17.13 pg/mL
TGF-β in serum (NZB/W F1 female mice [3]): 66007.78 ± 5207.83 pg/mL
ALT (NZB/W F1 female mice [4]): 24.09 ± 2.00* U/I
AST (NZB/W F1 female mice [4]): 52.09 ± 4.25* U/I
decrease of ratio of CD138+ cells (NZB/W F1 female mice [5]): 16.3%

SMILES: O=C(NO)c1ccc(CN(C(=O)N2CCOCC2)c2cccc(CF)c2)cc1 [Compound 500, N-(3-(fluoromethyl)phenyl)-N-(4-(hydroxycarbamoyl)benzyl)morpholine-4-carboxamide]
level of TNFα secretion ([1]; at both 100 nM and 300 nM): remarkably decreased

SMILES: O=C(NO)c1ccc(CN(C(=O)N2CCOCC2)c2cccc(F)c2)cc1 [Compound 530, N-(3-fluorophenyl)-N-(4-(hydroxycarbamoyl)benzyl)morpholine-4-carboxamide]
level of TNFα secretion [1, 7]: drastically decreased

SMILES: O=C(NO)c1ccc(CN(C(=O)N2CCOCC2)c2cccc(Br)c2)cc1 [Compound 255, N-(3-bromophenyl)-N-(4-(hydroxycarbamoyl)benzyl)morpholine-4-carboxamide]
cytotoxicity [6]: severe cytotoxicity

Reference: US11571426B2, “Compositions for preventing or treating lupus” (CHONG KUN DANG PHARMACEUTICAL CORP., priority 2017, dated 2023)
